Where two headings read alike, the source gives them in different places.
Assays:
[1] = biological target: T1, purified, recombinant human DPIV (Homo sapiens, UniProt P27487); assay: Inhibition of enzymatic activity of DPIV (fluorogenic substrate hydrolysis); type: biochemical; conditions: highest test item concentration 25 μM
T1 construct: made in house; host or cells: Sf9 insect cells
Description: (§1) The inhibition of the enzymatic activity of DPIV and related enzymes was measured by using purified, recombinant human DPIV (purified from transfected Sf9 cells, final enzyme concentration approx. 1 nM) as well as purified, recombinant DP8 and DP9 (purchased from Biomol). The assay was performed in 0.05M TRIS/HCl puffer pH 7.5, supplemented with 0.05% Triton (v/v), 0.05% BSA (w/v), 2 mM MgCl2.
(§2) The enzymatic activity of DPIV was assessed by the hydrolysis of the fluorogenic substrates H-Gly-Pro-4-amino-7-methyl coumarine (abbreviation of fluorogenic group AMC; purchased from Bachem) or (Ala-Pro)2-Rhodamine 110 (abbreviation R110). The final substrate concentrations were 50 μM or 1 μM, respectively.
(§3) The assay was performed in white microtitre plates for fluorescence measurements. The test items, substrate and enzyme were diluted in assay buffer. The highest test item concentration used was 25 μM. For the calculation of IC50 values, at least 16 log 2-dilutions of each test item were analyzed. As controls, the DPIV activity in the absence of test items as well as the spontaneous hydrolysis of the substrate was determined.
(§4) The release of the fluorescent hydrolysis product AMC was measured at an excitation wavelength of 380 nm and an emission wavelength of 460 nm by using a microtitre fluorescence reader immediately after substrate addition as well as after 30, 60 and 120 min. The hydrolysis of the substrate (Ala-Pro)2-Rhodamine 110 was determined at an exitation wavelength of 488 nm and emission wavelength of 530 nm.

[2] = biological target: T2, aminopeptidase N (APN), purified recombinant human enzyme (Homo sapiens, UniProt P15144); assay: Inhibition of enzymatic activity of aminopeptidase N (fluorogenic substrate hydrolysis); type: biochemical; conditions: highest test item concentration 25 μM
T2 construct: made in house; host or cells: ECV cells (transfected)
Description: The inhibition of the enzymatic activity of aminopeptidase N (APN) was measured by using purified, recombinant human enzyme (purified from transfected ECV cells, final enzyme concentration approx. 1 nM). […] The assay was performed in 0.05M TRIS/HCl puffer pH 7.5, supplemented with 0.05% Triton (v/v), 0.05% BSA (w/v), 2 mM MgCl2.
The aminopeptidase acitivities wer assessed by the hydrolysis of the fluorogenic substrates H-Ala-4-amino-7-methyl coumarine (abbreviation of fluorogenic group AMC; purchased from Bachem) or (Ala-)2-Rhodamine 110 (abbreviation R110). The final substrate concentrations were again 50 and 1 μM, respectively.
as §3
The release of the fluorescent hydrolysis products AMC and R110 was measured as described above for DPIV substrates.

[3] = tested on: purified, recombinant DP8 and DP9; assay: Inhibition of enzymatic activity of DP8/9; type: biochemical; conditions: highest test item concentration 25 μM
Description: as §1, §2, §3, §4

[4] = biological target: T3, cytosolic aminopeptidase (cAAP) purified from Jurkat cells (Homo sapiens, UniProt P55786); assay: Inhibition of enzymatic activity of cytosolic aminopeptidase (cAAP); type: biochemical; conditions: highest test item concentration 25 μM; for IC50: read-out: meas. IC50 (cAAP)
T3 construct: The cytosolic aminopeptidase (cAAP) was purified from Jurkat cells; endogenous in cells; host or cells: Jurkat cells (enzyme purified from them)

T lymphocytes (T cells) = assay: Suppression of DNA synthesis of PHA-stimulated T lymphocytes; type: cell-based; conditions: Homo sapiens, T-cell, 48 h, tritium thymidine incorporation, read-out: Supp. DNA Synt. T-cell IC50
Description: Peripheral blood mononuclear cells (PBMC) from healthy human volunteers were freshly isolated by density gradient centrifugation. T lymphocytes (T cells) were isolated from PBMC fractions via nylon wool adherence. Both cell populations were cultured in serum free lymphocyte medium (AIMV medium, Invitrogen) and stimulated by addition of 1 μg/ml Phytohemagglutinine for 48 hours in 96 well flat-bottom microtiter plates. Test compounds were added at concentration ranges from 0.1 up to 250 μM over the total assay period.
DNA synthesis of proliferating PBMC was assessed by incorporation of nucleotide analogue bromdesoxyuridine (BrdU) and subsequent detection of BrdU by ELISA technique (Cell Proliferation Biotrak™ ELISA system, GE Health Care) according to the protocol of the manufacturer. DNA synthesis of proliferating T cells was determined by incorporation of radio labelled tritium thymidine and subsequent radio detection.
Data output was based on raw data and calculation of relative proliferation response in relation to PHA-activated T cells in the absence of test compound (100% control). The IC50 value of proliferation suppression was assessed by graphical evaluation.

NHEK cells = assay: Inhibition of DNA synthesis and proliferation of normal human epidermal keratinocytes (NHEK); type: cell-based; conditions: EGF-stimulated NHEK, BrdU incorporation, read-out: Supp. DNA Synt. NHEK IC50
Description: NHEK cells (primary cells from person) were purchased from PromoCell. For these assay the adherent cells were cultured in serum-free Keratinocyte Growth medium 2 supplemented with epidermal growth factor (EGF) and bovine pituitary extract for 48 hours in flat-bottom microtiter plates. EGF stimulates the DNA synthesis and proliferation of these cells. Test items were added in concentrations from 0.1 up to 100 μM.
The DNA synthesis was assessed by incorporation of bromdesoxyuridine (BrdU) and subsequent detection of BrdU by ELISA technique. Based on these raw data the relative proliferation response in relation to cells cultured in the absence of test compound (100% control) was calculated. IC50 values of proliferation suppression were assessed by computer-assisted graphical evaluation.

SZ95 cells = assay: Inhibition of DNA synthesis and proliferation of immortalized human sebocytes SZ95; type: cell-based; conditions: Homo sapiens, EGF-stimulated SZ95 sebocytes, tritium thymidine incorporation; read-out: Supp. DNA Synt. SZ95 IC50
Description: The immortalized human sebocyte line SZ95 was provided by Prof. C Zouboulis [C C Zouboulis, H Seltmann, H Neitzel, C E Orfanos, Establishment and characterization of an immortalized human sebaceous gland cell line (SZ95). J. Invest. Dermatol. 113(6):1011-1020 (1999), the entire disclosure of which is incorporated by reference herein]. These adherent growing cells were cultured in serum-free Sebomed Complete (Biochrom). Recombinant EGF was added in order to stimulate DNA synthesis and proliferation of the SZ95 cells. Test items were added in concentrations from 0.1 up to 100 μM.
The DNA synthesis of proliferating cells was detected by incorporation of radiolabelled tritium thymidine (3HT) and counting at a beta counter. Based on these raw data the relative proliferation response in relation to cells cultured in the absence of test compound (100% control) was calculated. IC50 values of proliferation suppression were assessed by computer-assisted graphical evaluation.

T1 sequence (P27487 whole entry): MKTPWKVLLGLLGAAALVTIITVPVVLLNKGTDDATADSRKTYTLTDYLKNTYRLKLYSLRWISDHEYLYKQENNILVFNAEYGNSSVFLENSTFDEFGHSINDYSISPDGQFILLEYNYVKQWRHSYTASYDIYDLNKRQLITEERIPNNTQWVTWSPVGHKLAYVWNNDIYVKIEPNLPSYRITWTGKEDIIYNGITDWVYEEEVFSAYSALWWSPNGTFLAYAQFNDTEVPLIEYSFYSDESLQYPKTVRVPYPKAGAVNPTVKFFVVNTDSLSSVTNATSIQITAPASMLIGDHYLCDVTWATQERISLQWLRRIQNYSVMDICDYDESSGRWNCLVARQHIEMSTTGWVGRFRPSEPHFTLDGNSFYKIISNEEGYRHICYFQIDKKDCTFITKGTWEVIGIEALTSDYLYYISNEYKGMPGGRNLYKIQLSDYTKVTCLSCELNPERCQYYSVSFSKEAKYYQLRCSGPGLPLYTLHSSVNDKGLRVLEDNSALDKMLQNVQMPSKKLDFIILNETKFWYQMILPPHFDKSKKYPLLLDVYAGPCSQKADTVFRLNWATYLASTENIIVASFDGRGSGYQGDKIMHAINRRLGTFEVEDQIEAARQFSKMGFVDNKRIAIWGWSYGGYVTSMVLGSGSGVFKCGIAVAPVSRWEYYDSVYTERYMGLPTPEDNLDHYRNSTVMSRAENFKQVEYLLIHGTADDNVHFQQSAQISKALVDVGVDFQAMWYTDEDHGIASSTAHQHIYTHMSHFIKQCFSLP
T2 sequence (P15144 whole entry): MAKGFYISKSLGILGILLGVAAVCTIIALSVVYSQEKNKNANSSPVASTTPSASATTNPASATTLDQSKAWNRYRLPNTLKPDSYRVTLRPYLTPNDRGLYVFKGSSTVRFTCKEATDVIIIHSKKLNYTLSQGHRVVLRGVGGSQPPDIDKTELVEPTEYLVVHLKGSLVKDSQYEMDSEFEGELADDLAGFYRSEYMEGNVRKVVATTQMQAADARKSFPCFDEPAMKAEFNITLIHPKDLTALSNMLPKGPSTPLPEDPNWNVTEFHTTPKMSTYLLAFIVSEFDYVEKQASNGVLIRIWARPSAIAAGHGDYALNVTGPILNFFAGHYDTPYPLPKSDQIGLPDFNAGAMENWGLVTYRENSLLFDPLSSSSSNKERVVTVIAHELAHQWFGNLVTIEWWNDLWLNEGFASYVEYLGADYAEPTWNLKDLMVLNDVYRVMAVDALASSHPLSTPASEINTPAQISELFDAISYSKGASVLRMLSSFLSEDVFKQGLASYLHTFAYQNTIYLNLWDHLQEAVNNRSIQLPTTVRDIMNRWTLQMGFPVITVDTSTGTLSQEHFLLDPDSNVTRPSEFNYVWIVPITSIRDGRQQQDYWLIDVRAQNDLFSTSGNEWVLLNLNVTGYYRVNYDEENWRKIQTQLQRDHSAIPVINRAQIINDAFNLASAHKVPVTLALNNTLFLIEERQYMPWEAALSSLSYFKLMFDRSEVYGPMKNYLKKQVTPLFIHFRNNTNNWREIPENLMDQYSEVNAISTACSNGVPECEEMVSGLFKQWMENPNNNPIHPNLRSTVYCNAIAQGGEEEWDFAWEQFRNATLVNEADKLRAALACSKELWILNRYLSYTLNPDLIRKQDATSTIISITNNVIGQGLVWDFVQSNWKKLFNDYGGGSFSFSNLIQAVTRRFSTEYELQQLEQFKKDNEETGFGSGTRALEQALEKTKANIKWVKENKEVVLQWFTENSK
T3 sequence (P55786 whole entry): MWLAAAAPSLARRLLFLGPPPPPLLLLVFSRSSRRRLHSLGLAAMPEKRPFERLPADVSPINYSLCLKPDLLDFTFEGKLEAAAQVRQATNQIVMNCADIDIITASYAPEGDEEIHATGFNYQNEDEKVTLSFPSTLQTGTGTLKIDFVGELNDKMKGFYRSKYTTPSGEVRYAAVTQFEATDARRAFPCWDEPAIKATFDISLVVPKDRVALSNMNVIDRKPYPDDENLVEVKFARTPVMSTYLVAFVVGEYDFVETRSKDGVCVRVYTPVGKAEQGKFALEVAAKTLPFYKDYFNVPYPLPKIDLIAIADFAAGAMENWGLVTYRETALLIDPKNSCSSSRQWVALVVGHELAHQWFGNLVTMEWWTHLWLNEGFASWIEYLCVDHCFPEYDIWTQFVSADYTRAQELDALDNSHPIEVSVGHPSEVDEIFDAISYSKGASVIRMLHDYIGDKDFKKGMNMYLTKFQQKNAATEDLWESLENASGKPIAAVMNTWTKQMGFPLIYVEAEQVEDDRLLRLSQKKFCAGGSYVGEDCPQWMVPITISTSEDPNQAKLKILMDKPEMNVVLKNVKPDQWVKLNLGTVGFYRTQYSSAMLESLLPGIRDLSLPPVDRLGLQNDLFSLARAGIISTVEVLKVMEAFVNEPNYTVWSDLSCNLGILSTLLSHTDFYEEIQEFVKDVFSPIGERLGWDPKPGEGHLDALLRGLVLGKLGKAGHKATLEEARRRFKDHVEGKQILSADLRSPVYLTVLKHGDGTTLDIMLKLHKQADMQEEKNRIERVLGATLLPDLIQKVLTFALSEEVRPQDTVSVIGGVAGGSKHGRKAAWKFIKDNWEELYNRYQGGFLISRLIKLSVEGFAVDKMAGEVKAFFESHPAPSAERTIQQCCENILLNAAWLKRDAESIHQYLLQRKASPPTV

Structure (SMILES)	meas. IC50 (DPIV) [1]	meas. IC50 (APN) [2]	meas. IC50 (DP8/9) [3]	meas. IC50 (cAAP) [4]	IC50 (T lymphocytes (T cells)) [µM]	IC50 (NHEK cells; Homo sapiens, NHEK, 48 h) [µM]	IC50 (SZ95 cells) [µM]	IC50 [4] [µM]	IC50 ([2]; read-out: meas. IC50 (APN)) [µM]	IC50 (NHEK cells; 48 hours) [µM]
CCCCCCCC(=O)OC(C(=O)NCC(C)(C)CNC(=O)CC(Cc1cc(F)ccc1F)NC(=O)OC(C)(C)C)C(COCc1ccc(OC)cc1)NC(=O)OC(C)(C)C (centres unmarked) [Compound C19.007]	no in- hibition	no in- hibition	no in- hibition	no in- hibition	78.6	≥ 120	56.8	–	–	–
CC(C)(CNC(=O)CC(Cc1cc(F)ccc1F)NC(=O)OCc1ccccc1)CNC(=O)C(O)C(COCc1ccccc1)NC(=O)OCc1ccccc1 (centres unmarked) [Compound C19.008]	no in- hibition	no in- hibition	no in- hibition	–	5.7	6.77	8.6	5.8	–	–
CCOC(=O)NC(CC(=O)NCC(C)(C)CNC(=O)C(O)C(COCc1ccccc1)NC(=O)OCC)Cc1cc(F)ccc1F (centres unmarked) [Compound C19.009]	no in- hibition	–	no in- hibition	–	33.9	100	59.1	3.4	5.9	–
CCCCCCCC(=O)NC(CC(=O)NCC(C)(C)CNC(=O)C(O)C(COCc1ccccc1)NC(=O)CCCCCCC)Cc1cc(F)ccc1F (centres unmarked) [Compound C19.010]	no in- hibition	no in- hibition	no in- hibition	–	7.6	48.1	12.2	3.5	–	–
CCCCCCCCCCCCCC(=O)NC(CC(=O)NCC(C)(C)CNC(=O)C(O)C(COCc1ccccc1)NC(=O)CCCCCCCCCCCCC)Cc1cc(F)ccc1F (centres unmarked) [Compound C19.011]	no in- hibition	no in- hibition	no in- hibition	no in- hibition	168	≥ 110	≥ 155	–	–	–
CCCCCC(=O)NC(CC(=O)NCC(C)(C)CNC(=O)C(O)C(COCc1ccccc1)NC(=O)CCCCC)Cc1cc(F)ccc1F (centres unmarked) [Compound C19.012]	no in- hibition	no in- hibition	no in- hibition	–	12.2	17.5	28.6	0.51	–	–
CCCCCC(=O)NC(CC(=O)NCC(C)(C)CNC(=O)C(O)C(COCc1ccc(OC)cc1)NC(=O)CCCCC)Cc1cc(F)ccc1F (centres unmarked) [Compound C19.013]	no in- hibition	no in- hibition	no in- hibition	no in- hibition	6.5	15.3	17.4	–	–	–
CCCCCC(=O)NC(CC(=O)NCC(C)(C)CNC(=O)C(OC(=O)CCCCC)C(COCc1ccccc1)NC(=O)CCCCC)Cc1cc(F)ccc1F (centres unmarked) [Compound C19.014]	no in- hibition	no in- hibition	no in- hibition	no in- hibition	19.8	2.97	≥ 149	–	–	–
CC(C)(C)OC(=O)NC(CNC(=O)c1cccc(NC(=O)C(O)C(COCc2ccccc2)NC(=O)OC(C)(C)C)c1)Cc1cc(F)ccc1F (centres unmarked) [Compound C19.015]	no in- hibition	no in- hibition	no in- hibition	no in- hibition	8	15.9	5.75	–	–	–
CC(C)(CNC(=O)CC(Cc1cc(F)ccc1F)NC(=O)C(C)(C)C)CNC(=O)C(O)C(COCc1ccccc1)NC(=O)C(C)(C)C (centres unmarked) [Compound C19.016]	no in- hibition	no in- hibition	no in- hibition	no in- hibition	15.7	37.9	49.2	–	–	–
CCCC(=O)NC(CC(=O)NCC(C)(C)CNC(=O)C(O)C(COCc1ccccc1)NC(=O)CCC)Cc1cc(F)ccc1F (centres unmarked) [Compound C19.017]	no in- hibition	no in- hibition	no in- hibition	no in- hibition	30.5	64.6	≥ 173	–	–	–
COc1ccc(COCC(NC(=O)C(C)(C)C)C(OCc2ccc(OC)cc2)C(=O)NCC(C)(C)CNC(=O)CC(Cc2cc(F)ccc2F)NC(=O)C(C)(C)C)cc1 (centres unmarked) [Compound C19.018]	no in- hibition	no in- hibition	no in- hibition	no in- hibition	3.3	9.9	9.1	–	–	–
CC(C)(CNC(=O)CC(Cc1cc(F)ccc1F)NC(=O)OC(C)(C)C)CNC(=O)C(OC(=O)C(C)(C)C)C(COCc1ccccc1)NC(=O)OC(C)(C)C (centres unmarked) [Compound C19.019]	no in- hibition	no in- hibition	no in- hibition	no in- hibition	122	≥ 131	70.6	–	–	–
CC(C)(CNC(=O)CC(Cc1cc(F)ccc1F)NC(=O)OC(C)(C)C)CNC(=O)C(O)C(COCc1ccccc1)NC(=O)OC(C)(C)C (centres unmarked) [Compound C19.023]	No in- hibition	no in- hibition	no in- hibition	no in- hibition	11.5	–	15.9	–	–	41

Source: patent US20120028995A1, “NOVEL COMPOUNDS FOR MEDICAL USE AS PEPTIDASE EFFECTORS” (IMTM GMBH, priority 2010, published 2012)
